Assays:
[1] = Solubility of metallocenes in 1-decene; type: physicochemical; settings: ambient temperature (21° C.), visual inspection for solids or haze
Experimental: Additional portions of the desired metallocenes were then added in increments of 3-4 mg and the mixture was allowed to stir for 30 minutes after each addition at ambient temperature (21° C.). The resulting mixtures were visually inspected for solids or significant haze. Metallocenes were considered soluble if significant haze or solids were not observed.

[2] = Ethylene/1-hexene polymerization with metallocene catalyst compositions
Experimental: Polymerization experiments employing catalyst compositions comprising MET-A, MET-B, MET-C, MET-D, MET-E, and MET-F were conducted as follows. Unless otherwise indicated, the polymerization experiments used in the following examples were conducted for […] in a one-gallon (3.8 L) stainless-steel autoclave reactor containing isobutane as diluent. A syringe was charged with 250 mg solid activator-support, 2 mL hexane, 0.5 mL of 1M TIBA (in hexane) and 2.0 mg metallocene (MET-A, MET-B, MET-C, MET-D, MET-E, or MET-F, as noted in Tables III and IV) in that order. The slurry was charged to the reactor under an isobutane purge. The reactor was sealed, charged with 2 L of isobutane, and heated to 80° C. Ethylene was charged to the reactor and fed on demand to maintain the target pressure of 320 psig (2.2 MPa). The reactor was maintained at the target temperature throughout the experiment by an automated heating-cooling system. After venting of the reactor, purging, and cooling, the resulting polymer product was dried under reduced pressure. For Examples 40-41, the polymerization temperature was 90° C., and ethylene pressure was maintained at 390 psig ethylene, with a 1-hexene feed ratio of 20 wt. % vs. ethylene.

[3] = Metallocene-catalyzed oligomerization of 1-decene; settings: 1-decene 675 g, 110° C., 1 hour, 5 mg metallocene, CTSO, TIBA, hydrogen
Experimental: Metallocene-catalyzed oligomerizations were performed using MET-A and MET-D as follows. Generally, 1-decene was oligomerized to an oligomer product of dimers, trimers, and tetramers in the presence of MET-A or MET-D, as noted in Table II below. For Examples 8-9, a 1-gallon batch reactor was charged with 675 g of 1-decene. A syringe was charged with CTSO (0.750 g), TIBA (1.3 mL of a 1.0 M hexane solution), and metallocene (5 mg). The chemically treated solid oxide (CTSO) was a fluorided silica-coated alumina (60:40 alumina:silica by weight) containing 4 wt. % F and having a d50 average particle size of 35 microns, a BET surface area of 450 m^2/g, and a pore volume of 1.1 mL/g. The catalyst mixture was shaken to mix and was then charged to the reactor under a nitrogen purge. The reactor was heated to 110° C. while stirring at 600-900 rpm. […]
The reaction mixture was then filtered and analyzed by gas chromatography to determine the yield of oligomer product formed in the reaction mixture, and to determine the relative amount of certain oligomers within the oligomer product (e.g., the trimer:tetramer weight ratio). […]
The distribution of olefin end groups was determined using ^1H NMR on a Bruker 300 MHz NMR. Spectra were recorded in CDCl3 and are reported relative to SiMe4 as determined by reference to the residual ^1H solvent peak. […]

Structure (SMILES)	Solubility [1] [wt. %]	Support Activity ([2]; Table IV, 1-hexene 51 g, 90° C., 390 psig ethylene, 1-hexene feed ratio 20 wt. %) [g/g/h]	Activity [3]	Support Activity ([2]; 1-hexene 7.5 g, 80° C., 320 psig, 30 min, isobutane, TIBA)	Support Activity ([2]; 1-hexene 12 g, 80° C., 320 psig, 30 min, isobutane, TIBA)	Support Activity ([2]; 1-hexene 17.5 g, 80° C., 320 psig, 30 min, isobutane, TIBA)	Support Activity ([2]; 1-hexene 30 g, 80° C., 320 psig, 30 min, isobutane, TIBA)	Support Activity ([2]; Table IV, 1-hexene 49 g, 90° C., 390 psig ethylene, 1-hexene feed ratio 20 wt. %) [g/g/h]
CCCC[c-]1cccc1.Fc1c(F)c(F)c(C[c-]2ccc3ccccc32)c(F)c1F.[Cl-].[Cl-].[Zr+4] (stereo not drawn) [MET-G]	0.4	1392						
Fc1c(F)c(F)c(C[c-]2ccc3ccccc32)c(F)c1F.[Cl-].[Cl-].[Zr+4].c1cc[cH-]c1 (stereo not drawn) [MET-A]	<0.1		75,060 g/(g*h)	1,920 g/(g*h)	1,776 g/(g*h)	1,872 g/(g*h)	2,144 g/(g*h)	2937

Source: US20250011484A1, “METHODS FOR PREPARING METALLOCENE COMPOUNDS” (Chevron Phillips Chemical Company LP, priority 2023, published 2025)
